The subject of one experiment is 293T cells. The experiment can be described thus: Global myristoylation level, western blot. The format is cell-based. The method, then:
(§1) Protein samples were separated by SDS/PAGE and transferred to the PVDF membrane. The membrane was blocked with 5% BSA in TBST (25 mM Tris, pH 7.4, 150 mM NaCl, 0.1% Tween‐20), incubated with primary antibodies and secondary antibodies in TBST, and then treated with ECL Plus western blotting detection reagents (Bio‐rad). The chemiluminescence signal was analyzed by ChemiDoc imaging system (Bio‐rad).
(§2) HMEC‐1, obtained from Shanghai Zhong Qiao Xin Zhou Biotechnology, was cultured in MCDB131 medium containing 10% foetal bovine serum (FBS) and 1% antibiotics (penicillin and streptomycin) in 5% CO2 incubator at 37 °C. HUVEC, obtained from Shanghai Zhong Qiao Xin Zhou Biotechnology, were cultured in ECM medium containing 5% FBS, 1% antibiotics (penicillin and streptomycin) and 1% endothelial cell growth supplement (ECGS) in 5% CO2 incubator at 37 °C. HEK 293T were obtained from ATCC, and cultured in Dulbecco's modified Eagle's medium (DM EM) containing 10% FBS and 1% antibiotics (penicillin and streptomycin) in 5% CO2 incubator at 37 °C. The SIRT6 KO 293T cells were constructed by Hanbio Biotechnology, the SIRT6 gRNA was 5′‐[…]‐3′. SIRT6 overexpression and knockdown recombinant lentivirus were constructed by Hanbio Biotechnology, the vector pGLV3‐harboring SIRT6 and SIRT6 shRNA (5′‐[…]‐3′) were used for lentivirus packaging. […]

Another experiment relates to ATF2 in 293T. In words: ATF2 protein level, western blot. It counts as cell-based. The settings on record: 0–20 µg mL^−1, 12 h, n = 3. Here is the method:
as §1, §2
(In general: Immunoblotting shows a protein as a band on a membrane.)

Experiment [1] relates to FLAG-tagged ATF2 in 293T cells. The experiment can be described thus: ATF2 myristoylation, IP and Click-iT. The settings on record: 10 µg mL^−1, 12 h, n = 3. The format is cell-based. Here is the method: (§3) HMEC‐1, obtained from Shanghai Zhong Qiao Xin Zhou Biotechnology, was cultured in MCDB131 medium containing 10% foetal bovine serum (FBS) and 1% antibiotics (penicillin and streptomycin) in 5% CO2 incubator at 37 °C. HUVEC, obtained from Shanghai Zhong Qiao Xin Zhou Biotechnology, were cultured in ECM medium containing 5% FBS, 1% antibiotics (penicillin and streptomycin) and 1% endothelial cell growth supplement (ECGS) in 5% CO2 incubator at 37 °C. HEK 293T were obtained from ATCC, and cultured in Dulbecco's modified Eagle's medium (DM EM) containing 10% FBS and 1% antibiotics (penicillin and streptomycin) in 5% CO2 incubator at 37 °C. The SIRT6 KO 293T cells were constructed by Hanbio Biotechnology, the SIRT6 gRNA was 5′‐[…]‐3′. SIRT6 overexpression and knockdown recombinant lentivirus were constructed by Hanbio Biotechnology, the vector pGLV3‐harboring SIRT6 and SIRT6 shRNA (5′‐[…]‐3′) were used for lentivirus packaging. The plasmid ATF2WT, ATF2K296R, GFP‐ATF2WT and GFP‐ATF2K296R were synthesized by Hanbio Biotechnology, and the plasmid pUC57‐SIRT6 and all primers were synthesized by Tsingke Biotechnology.
Click chemistry was used for the detection of K296 myristoylation of exogenous ATF2. The click chemistry‐based labeling and detection technology was conducted according to the manufacturer's instructions (Click‐iT Protein Reaction Buffer Kit Invitrogen C10276).

A further experiment concerns FLAG‐ATF2 in 293T cells. The experiment can be described thus: Nuclear localization of FLAG-ATF2, 293T. The conditions noted are these: 10 µg mL^−1, 12 h, n = 3. The format is cell-based. Here is the method:
as §1, §2

Experiment [2] concerns ATF2 in SIRT6 KD HMEC cells. In words: Nuclear localization of ATF2, HMEC. It counts as cell-based. The conditions noted are these: 10 µg mL^−1, 12 h, n = 3; not the K296R mutant. The method, then:
as §1, §2

In experiment [3] the test system is endogenous ATF2 in HUVECs. The experiment can be described thus: Nuclear localization of endogenous ATF2, HUVEC. The format is cell-based. The settings on record: 10 µg mL^−1, 12 h, n = 3. The method, then: as §1, §2
Experiment [4] has as its system VE‐Cadherin and PRKCD in HMEC-1. The experiment can be described thus: VE-Cadherin and PRKCD expression, western blot, HMEC-1. The format is cell-based. The conditions noted are these: 10 µg mL^−1, 12 h, n = 3. The method, then: as §1, §2
Experiment [5] concerns HMEC-1. In words: Transendothelial permeability (transwell, FITC-dextran). The format is cell-based. The settings on record: 10 µg mL^−1, 12 h; FITC‐dextran 6µg mL^−1, 2 h or 6h, n = 3. The method, then: as §2
HMEC‐1 transfected with relative plasmids were pretreated with ALK14(10 µg mL^−1) for 12 h and were grown on 0.4 µm‐pore transwell filters (Millipore, Bedford, MA) until confluent. […] Fluorescence of media in the lower chamber was detected at 485/530 nm by afluorescence microplate reader (FL × 800, BIO‐TEK Instruments).

For experiment [6], the system named is HMEC-1. The experiment can be described thus: Intercellular gap formation, VE-Cadherin immunofluorescence. It counts as cell-based. The settings on record: 10 µg mL^−1, 12 h, n = 8–10; prevented by K296R. The method, then:
as §3

Experiment [7] deals with HMEC-1. The experiment can be described thus: Endothelial-stromal differentiation (CD31 and αSMA western blot). The format is cell-based. The settings on record: 10 ug/ml, 12h, n=3. The method, then: as §1, §2
In experiment [8] the test system is ATF2 localization and PRKCD/VE‐cadherin axis in HUVECs. The experiment can be described thus: ALK14 versus myristic acid, ATF2 localization and PRKCD/VE-cadherin axis. The format is cell-based. The settings on record: each 10 μg/ml, 12 hours. The method, then:
as §1, §2

For another experiment, the system named is SIRT6. The conditions noted are these: SIRT6 activator, ref [57]; cited from earlier work. The source says: Table 1 The activators of SIRT6 were represented with structure, EC50, category, company, indications, and reference. | column: EC50

`C#CCCCCCCCCCCCC(=O)O` [ALK14, Alkynyl myristic acid]: the “global myristoylation level, dose dependence” value in the experiment on 293T cells (0–10 µg mL^−1, 12 hours) is “dose‐dependent increases”. The “global myristoylation level, ALK14-treated versus untreated” value in the experiment with 293T cells (SIRT6 WT and KO cells, 10 μg/ml) is “significantly elevated global myristoylation levels”. Also, the ATF2 protein level entry with ATF2 in 293T is listed as “remained stable”. In experiment [1], the ATF2 myristoylation level result is reported as “significant myristoylation enhancement”. Further, the “nuclear FLAG‐ATF2 accumulation” value in the experiment with FLAG‐ATF2 in 293T cells is recorded as “significantly reduced nuclear FLAG‐ATF2 accumulation”. Moreover, in experiment [2], the “nuclear accumulation of wild‐type ATF2” value was “reduced nuclear accumulation of wild‐type ATF2”. Moreover, the ATF2 translocation entry in experiment [3] is on record as “translocation of endogenous ATF2 from nucleus to cytoplasm”. In experiment [4], the PRKCD expression result is recorded as “PRKCD reduction” and the “VE‐cadherin expression” value is given as “significantly reduced VE‐cadherin expression”. Further, in the experiment with HMEC-1 [5], the “endothelial permeability, ATF2 K296R cells” value was “absent in K296R mutants” and the “endothelial permeability, ATF2 WT cells” value is recorded as “ALK14‐induced permeability in ATF2 WT cells”. In addition, the “intercellular gap formation (5 µm/10 µm), ATF2 WT” value with HMEC-1 [6] is “ALK14‐induced gap formation”. In addition, the “effect on endothelial‐stromal differentiation” value in the experiment on HMEC-1 [7] is on record as “Neither ALK14 nor ATF2 modification influenced endothelial‐stromal differentiation”. Also, in experiment [8], the “impact on ATF2 localization and PRKCD/VE‐cadherin axis, myristic acid versus ALK14” value is given as “equivalent impacts”.

The EC50 is the midpoint of the concentration-response curve. Regarding `COC(=O)c1cc(NS(=O)(=O)c2cc(Cl)cc(Cl)c2)ccc1S(=O)(=O)Nc1cc(Br)c(F)cc1C` [MDL‐800], in the experiment with SIRT6, the EC50 was […].
